Measurements: PubChem BioAssay AID1259407 (Chemical Carcinogenesis Research Information System (CCRIS), 2018)
The source made the active and inactive calls. No rule for the calls is given here.

System: CCRIS mutagenicity, Ames/micronucleus/aberration tests
Experiment: CCRIS mutagenicity studies
[1] = Test System: AMES SALMONELLA TYPHIMURIUM, Strain/Indicator: TA98, Metabolic Activation: NONE, Method: STANDARD PLATE
[2] = Test System: AMES SALMONELLA TYPHIMURIUM, Strain/Indicator: TA98, Metabolic Activation: RAT, LIVER, S-9, AROCLOR 1254, Method: STANDARD PLATE
[3] = Test System: AMES SALMONELLA TYPHIMURIUM, Strain/Indicator: TA100, Metabolic Activation: NONE, Method: STANDARD PLATE
[4] = Test System: AMES SALMONELLA TYPHIMURIUM, Strain/Indicator: TA100, Metabolic Activation: RAT, LIVER, S-9, AROCLOR 1254, Method: STANDARD PLATE
[5] = Test System: AMES SALMONELLA TYPHIMURIUM, Strain/Indicator: TA98, Metabolic Activation: HAMSTER, LIVER, S-9, AROCLOR 1254, Method: STANDARD PLATE
[6] = Test System: AMES SALMONELLA TYPHIMURIUM, Strain/Indicator: TA100, Metabolic Activation: HAMSTER, LIVER, S-9, AROCLOR 1254, Method: STANDARD PLATE
[7] = Test System: AMES SALMONELLA TYPHIMURIUM, Strain/Indicator: TA1535, Metabolic Activation: HAMSTER, LIVER, S-9, AROCLOR 1254, Method: STANDARD PLATE
[8] = Test System: AMES SALMONELLA TYPHIMURIUM, Strain/Indicator: TA1535, Metabolic Activation: NONE, Method: STANDARD PLATE
[9] = Test System: AMES SALMONELLA TYPHIMURIUM, Strain/Indicator: TA1537, Metabolic Activation: HAMSTER, LIVER, S-9, AROCLOR 1254, Method: STANDARD PLATE
[10] = Test System: AMES SALMONELLA TYPHIMURIUM, Strain/Indicator: TA1537, Metabolic Activation: NONE, Method: STANDARD PLATE
[11] = Test System: AMES SALMONELLA TYPHIMURIUM, Strain/Indicator: TA1537, Metabolic Activation: RAT, LIVER, S-9, AROCLOR 1254, Method: STANDARD PLATE
[12] = Test System: MOUSE LYMPHOMA, Strain/Indicator: L5178Y (TK+/TK-), Metabolic Activation: RAT, LIVER, S-9, AROCLOR 1254, Method: SUSPENSION/PLATE
[13] = Test System: Mouse lymphoma, Strain/Indicator: L5178Y (tk+/tk-), Metabolic Activation: None, Method: Suspension/plate
[14] = Test System: AMES SALMONELLA TYPHIMURIUM, Strain/Indicator: TA98, Metabolic Activation: NONE, Method: PREINCUBATION
[15] = Test System: AMES SALMONELLA TYPHIMURIUM, Strain/Indicator: TA100, Metabolic Activation: NONE, Method: PREINCUBATION

Structure (SMILES): ClC(Cl)=C(Cl)c1c(Cl)c(Cl)c(Cl)c(Cl)c1Cl
- mutagenic call [1]: inactive; negative
- mutagenic call [2]: inactive; negative
- mutagenic call [3]: inactive; negative
- mutagenic call [4]: inactive; negative

Structure (SMILES): C/C=C/C=C/C(=O)O
- mutagenic call (Test System: AMES SALMONELLA TYPHIMURIUM, Strain/Indicator: TA97A, Metabolic Activation: NONE, Method: PREINCUBATION): inactive; negative
- mutagenic call (Test System: AMES SALMONELLA TYPHIMURIUM, Strain/Indicator: TA97A, Metabolic Activation: RAT, LIVER, S-9, AROCLOR 1254, Method: PREINCUBATION): inactive; negative
- mutagenic call (Test System: AMES SALMONELLA TYPHIMURIUM, Strain/Indicator: TA102, Metabolic Activation: NONE, Method: PREINCUBATION): inactive; negative
- mutagenic call (Test System: AMES SALMONELLA TYPHIMURIUM, Strain/Indicator: TA102, Metabolic Activation: RAT, LIVER, S-9, AROCLOR 1254, Method: PREINCUBATION): inactive; negative
- mutagenic call (Test System: CHINESE HAMSTER V-79, Strain/Indicator: V-79/6-THIOGUANINE, Metabolic Activation: NONE, Method: FLASK ASSAY): active; positive

Structure (SMILES): COc1ccc2c(cc3c4c(cc5c(c42)OCO5)CCN3C)c1OC
- mutagenic call (Test System: AMES SALMONELLA TYPHIMURIUM, Strain/Indicator: TA98, Metabolic Activation: RAT, LIVER, S-9, PHENOBARBITAL AND BETA-NAPHTHOFLAVONE, Method: PREINCUBATION): active; positive
- mutagenic call (Test System: AMES SALMONELLA TYPHIMURIUM, Strain/Indicator: TA100, Metabolic Activation: RAT, LIVER, S-9, PHENOBARBITAL AND BETA-NAPHTHOFLAVONE, Method: PREINCUBATION): active; positive

Structure (SMILES): Nc1nnc(/C(=C/c2ccc([N+](=O)[O-])o2)c2ccco2)o1
- mutagenic call (Test System: UDS HUMAN FIBROBLASTS, Strain/Indicator: THY INCORP (NON-S-PHASE), Metabolic Activation: NONE, Method: AUTORADIOGRAPHY): active; positive

Structure (SMILES): N#CSCSC#N
- mutagenic call [5]: inactive; negative
- mutagenic call [1]: inactive; negative
- mutagenic call [2]: inactive; negative
- mutagenic call [6]: inactive; negative
- mutagenic call [3]: inactive; negative
- mutagenic call [4]: inactive; negative
- mutagenic call [7]: inactive; negative
- mutagenic call [8]: inactive; negative
- mutagenic call (Test System: AMES SALMONELLA TYPHIMURIUM, Strain/Indicator: TA1535, Metabolic Activation: RAT, LIVER, S-9, AROCLOR 1254, Method: STANDARD PLATE): inactive; negative
- mutagenic call [9]: inactive; negative
- mutagenic call [10]: inactive; negative
- mutagenic call [11]: inactive; negative
- mutagenic call [12]: inactive; negative. reevaluation of results: negative
- mutagenic call [13]: inactive; negative

Structure (SMILES): C=CC(=O)OCC(CC)(COC(=O)C=C)COC(=O)C=C
- mutagenic call (End Point: In vivo micronucleus, Test System: Peripheral blood normochromatic erythrocytes, Species: Mouse, Strain/Sex: B6C3F1/Female, Route: Dermal): inactive; negative
- mutagenic call (End Point: In vivo micronucleus, Test System: Peripheral blood normochromatic erythrocytes, Species: Mouse, Strain/Sex: B6C3F1/Male, Route: Dermal): inactive; negative
- mutagenic call (End Point: In vivo micronucleus, Test System: Peripheral blood normochromatic erythrocytes, Species: Mouse, Strain/Sex: FVB.N/TgN (v-Ha-ras) Tg.AC hemizygous/Female, Route: Dermal): inactive; negative, purity 80%
- mutagenic call (End Point: In vivo micronucleus, Test System: Peripheral blood normochromatic erythrocytes, Species: Mouse, Strain/Sex: FVB.N/TgN (v-Ha-ras) Tg.AC hemizygous/Male, Route: Dermal): inactive; negative
- mutagenic call [5]: inactive; negative
- mutagenic call [1]: inactive; negative
- mutagenic call [2]: inactive; negative
- mutagenic call [6]: inactive; negative
- mutagenic call [3]: inactive; negative
- mutagenic call [4]: inactive; negative
- mutagenic call (Test System: AMES SALMONELLA TYPHIMURIUM, Strain/Indicator: TA1535, Metabolic Activation: HAMSTER, LIVER, S-9, AROCLOR 1254 (5-20%), Method: STANDARD PLATE): active; positive
- mutagenic call [7]: active; positive
- mutagenic call [8]: inactive; negative
- mutagenic call [9]: inactive; negative
- mutagenic call [10]: inactive; negative
- mutagenic call [11]: inactive; negative
- mutagenic call (Test System: CHINESE HAMSTER OVARY, Strain/Indicator: CHO-K1-BH4 (HGPRT)/6-THIOGUANINE, Metabolic Activation: NONE, Method: SUSPENSION/PLATE): inactive; negative
- mutagenic call (Test System: CHINESE HAMSTER OVARY, Strain/Indicator: CHO-K1-BH4 (HGPRT), Metabolic Activation: NONE): active; positive
- mutagenic call (Test System: CHINESE HAMSTER OVARY, Strain/Indicator: CHO-K1-BH4 (HGPRT), Metabolic Activation: NONE, Method: MONOLAYER): inactive; negative
- mutagenic call (Test System: CHINESE HAMSTER OVARY, Strain/Indicator: CHO-K1-BH4 (HGPRT), Metabolic Activation: NONE, Method: SUSPENSION/PLATE): active; positive
- mutagenic call [12]: inactive; negative
- mutagenic call [13]: active; positive
- mutagenic call (Test System: Mouse lymphoma, Strain/Indicator: L5178Y (tk+/tk-), Metabolic Activation: Rat, Liver, S-9, Aroclor 1254, Method: Suspension/plate): active; positive

Structure (SMILES): O[C@H]1[C@H]2O[C@H]2c2c(ccc3cc4ccc5ccccc5c4nc23)[C@@H]1O
- mutagenic call [14]: active; positive
- mutagenic call [15]: active; positive
- mutagenic call (Test System: CHINESE HAMSTER V-79, Strain/Indicator: V-79/8-AZAGUANINE, Metabolic Activation: NONE, Method: STANDARD PLATE): active; positive

Structure (SMILES): O=C1c2ccccc2-c2ccc3ccccc3c21
- mutagenic call [1]: inactive; negative
- mutagenic call [2]: inactive; negative
- mutagenic call [3]: inactive; negative
- mutagenic call [4]: inactive; negative

Structure (SMILES): COC(=O)N[C@H]1[C@H](O[C@H]2[C@H](O)[C@@H](N)[C@H](O[C@H]3[C@H](O)[C@@H](N)[C@H](O)O[C@@H]3CO)O[C@@H]2CO)O[C@H](CO)[C@@H](O[C@@H]2O[C@H](CO)[C@@H](O[C@@H]3O[C@H](CO)[C@@H](O[C@@H]4O[C@H](CO)[C@@H](O[C@@H]5O[C@H](CO)[C@@H](O[C@@H]6O[C@H](CO)[C@@H](O[C@@H]7O[C@H](CO)[C@@H](O)[C@H](O)[C@H]7N)[C@H](O)[C@H]6N)[C@H](O)[C@H]5N)[C@H](O)[C@H]4N)[C@H](O)[C@H]3N)[C@H](O)[C@H]2N)[C@@H]1O
- mutagenic call (End Point: IN VIVO CHROMOSOMAL ABERRATIONS, Test System: BONE MARROW CELLS (LYMPHOCYTES), Species: MOUSE, Strain/Sex: ICR/MALE, Route: DRINKING WATER): inactive; negative
- mutagenic call (End Point: IN VIVO CHROMOSOMAL ABERRATIONS, Test System: BONE MARROW, Species: MOUSE, Strain/Sex: ICR/MALE, Route: DRINKING WATER): inactive; negative
- mutagenic call (End Point: IN VIVO CHROMOSOMAL ABERRATIONS, Test System: BONE MARROW, Species: MOUSE, Strain/Sex: ICR/PARENT, F1, F2, F3 GENERATIONS, Strain/Sex: ICR/PARENT, F1, F2, F3 GENERATIONS, Route: DRINKING WATER): inactive; negative in all generations
- mutagenic call (End Point: IN VIVO MICRONUCLEUS, Test System: BONE MARROW POLYCHROMATIC ERYTHROCYTES, Species: MOUSE, Strain/Sex: ICR/MALE, Route: DRINKING WATER): inactive; negative

Structure (SMILES): CC(C)(C)C1=CC(=CC=C2C=C(C(C)(C)C)C(=O)C(C(C)(C)C)=C2)C=C(C(C)(C)C)C1=O
- mutagenic call [14]: inactive; negative
- mutagenic call (Test System: AMES SALMONELLA TYPHIMURIUM, Strain/Indicator: TA98, Metabolic Activation: RAT, LIVER, S-9, Method: PREINCUBATION): inactive; negative
- mutagenic call [15]: inactive; negative
- mutagenic call (Test System: AMES SALMONELLA TYPHIMURIUM, Strain/Indicator: TA100, Metabolic Activation: RAT, LIVER, S-9, Method: PREINCUBATION): inactive; negative

Structure (SMILES): c1ccc2nc3c4ccccc4c4ccccc4c3cc2c1
- mutagenic call (Test System: AMES SALMONELLA TYPHIMURIUM, Strain/Indicator: TA100, Metabolic Activation: RAT, LIVER, S-9, PHENOBARBITAL AND 5,6-BENZOFLAVONE, Method: STANDARD PLATE): active; positive
